Experimental data taken from US11066447B2, “Aureobasidium derivatives and methods of synthesis” (AureoGen Biosciences, Inc., priority 2016, dated 2021).
Values after ≈ are worked out from the molar mass of the structure shown. Read-outs that look alike come from different tables or passages of the source. Numbered stars: 1 amine (or outer) side, 2 acyl side, 3 side chain; on linkers, the order of the positions; unused ones are H or OH. Square brackets hold non-standard residues; d marks the D form. Peptide text beside a SMILES is read from it. ξ: configuration not given here. X8 = CC(=O)N1CCN(c2ccc(-c3cccc(C[C@@H](C(=O)[*:2])N(C)[*:1])c3)cn2)CC1; X9 = CN1CCN(c2cccc(-c3cccc(C[C@@H](C(=O)[*:2])N(C)[*:1])c3)n2)CC1; NMePhe(3-(3-pyridyl)) = CN[C@@H](Cc1cccc(-c2cccnc2)c1)C(=O)O; X36 = CN([C@@H](Cc1ccc(-c2cccnc2)cc1)C(=O)[*:2])[*:1]; Hmp(2R,3S) = CC[C@H](C)[C@@H](O)C(=O)O; NMeVal(β-OH) = CN[C@H](C(=O)O)C(C)(C)O; X6 = CCC(C)[C@@H](O[*:1])C(=O)[*:2]; ξNMeVal(3-OH) = CNC(C(=O)O)C(C)(C)O; Ile(3ξ) = CCC(C)[C@H](N)C(=O)O; NMeV = CN[C@H](C(=O)O)C(C)C; ξL = CC(C)CC(N)C(=O)O

Assays:
[1] = tested on: C. parapsilosis MMX 2323 ATCC 22019; test: MIC assay (CLSI microdilution); assay type: cell-based, Candida parapsilosis; conditions: read-out: MIC
Summary of the method: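 Broth microdilution MIC testing of Candida parapsilosis ATCC 22019 followed CLSI methods in RPMI-1640, with or without 0.002% Tween-80. Yeast grown 48 hours at 35° C on Sabouraud dextrose agar was suspended to a 0.5 McFarland standard and diluted 1:100 to roughly 0.5-2.5×10^3 CFU/mL. The MIC was the lowest concentration preventing visible growth.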

[2] = tested on: A. fumigatus MMX 6782 ATCC 13073; test: MIC/MEC assay (CLSI microdilution); assay type: cell-based; conditions: Aspergillus fumigatus, ATCC13073, 48 h; for minimal effective concentration: RPMI plus 0.002% Tween-80, read-out: MEC; for MIC: RPMI plus 0.002% Tween-80, read-out: MIC
Summary of the method: (§1)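 Broth microdilution per CLSI in RPMI-1640 with 0.002% Tween-80; MMX 5280 also run without Tween-80. Test compounds serially diluted two-fold in 95% ethanol, amphotericin B in DMSO (0.06-64 μg/mL). Aspergillus spore inoculum gave approximately 0.2-2.5×10^4 CFU/mL final.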

[3] = tested on: A. niger MMX 0624 ATCC 16888; test: MIC/MEC assay (CLSI microdilution); assay type: cell-based; conditions: Aspergillus niger, ATCC16888, 48 h; for minimal effective concentration: RPMI plus 0.002% Tween-80, read-out: MEC; for MIC: RPMI plus 0.002% Tween-80, read-out: MIC
Summary of the method: as §1

A. fumigatus MMX 5944 = test: MIC/MEC assay (CLSI microdilution); assay type: cell-based; conditions: Aspergillus fumigatus, MMX5944, 48 h; for minimal effective concentration: RPMI plus 0.002% Tween-80; for MIC: RPMI plus 0.002% Tween-80, read-out: MIC
Summary of the method: as §1

[4] = tested on: A. fumigatus MMX 6781 ATCC MYA-4609; test: MIC/MEC assay (CLSI microdilution); assay type: cell-based; conditions: Aspergillus fumigatus; for MIC: 48 h, RPMI plus 0.002% Tween-80, read-out: MIC; for minimal effective concentration: RPMI plus 0.002% Tween-80, 48 hr
Summary of the method: as §1

[5] = tested on: A. fumigatus from Aureogen; test: MIC/MEC assay (CLSI microdilution); assay type: cell-based; conditions: Aspergillus fumigatus, 48 h; for minimal effective concentration: RPMI plus 0.002% Tween-80; for MIC: RPMI plus 0.002% Tween-80, read-out: MIC
Summary of the method: as §1

A. flavus MMX 5948 = test: MIC/MEC assay (CLSI microdilution); assay type: cell-based; conditions: Aspergillus flavus, MMX5948, 48 h; for minimal effective concentration: RPMI plus 0.002% Tween-80; for MIC: RPMI plus 0.002% Tween-80, read-out: MIC
Summary of the method: as §1

[6] = tested on: A. fumigatus MMX 5280 ATCC MYA-3626; test: MIC/MEC assay (CLSI microdilution); assay type: cell-based, Aspergillus fumigatus; conditions: Aspergillus fumigatus, 48 h
Summary of the method: as §1

[7] = tested on: C. albicans MMX 2000 ATCC 10231; test: MIC assay (CLSI microdilution); assay type: cell-based; conditions: Candida albicans, ATCC10231, RPMI plus 0.002% Tween-80; read-out: MIC
[8] = tested on: C. neoformans MMX 0634 ATCC 90112; test: MIC assay (CLSI microdilution); assay type: cell-based; conditions: Cryptococcus neoformans, ATCC90112, 72 h, 72 hour; RPMI plus 0.002% Tween-80; read-out: MIC
[9] = tested on: C. albicans MMX 2000 ATCC 10231; test: MIC assay (CLSI microdilution); assay type: cell-based; conditions: Candida albicans, ATCC10231, Without Tween-80; read-out: MIC
A. fumigates = test: Antifungal activity of separated positional isomers of Compound X; assay type: cell-based
Protocol: Test Procedure. The MIC assay method followed the procedure described by CLSI (1, 2) and employed automated liquid handlers to conduct serial dilutions and liquid transfers. Automated liquid handlers included the Multidrop 384 (Labsystems, Helsinki, Finland), Biomek 2000 and Biomek FX (Beckman Coulter, Fullerton Calif.). The wells in columns 2-12 in standard 96-well microdilution plates (Costar 3795) were filled with 150 μl of the appropriate diluent (95% EtOH for investigational compounds, 100% DMSO for amphotericin B). These assay plates would become the ‘mother plates’ from which the assay ‘daughter plates’ would be prepared. The drugs (300 μL at 40× the desired top concentration in the test plates) were dispensed into the appropriate well in Column 1 of the mother plates. The Biomek 2000 was used to make two-fold serial dilutions through Column 11 in the “mother plate”. The wells of Column 12 contained no drug and served as the organism growth control wells.
The microplates were viewed from the bottom using a plate viewer. […] The MIC was read and recorded as the lowest concentration of drug that inhibited visible growth of the organism. MECs were read where the growth shifted to a small, rounded, compact hyphal form as compared to the hyphal growth seen in the growth control well. […]

[10] = ATCC22019, RPMI plus 0.002% Tween-80
[11] = RPMI plus 0.002% Tween-80, read-out: MEC
[12] = RPMI plus 0.002% Tween-80, read-out: MIC
[13] = Without Tween-80, read-out: MEC
[14] = Without Tween-80, read-out: MIC

Structure (SMILES)	MIC [1, 10] [µg/mL]	MIC ([1]; ATCC22019, Without Tween-80) [µg/mL]	minimal effective concentration [2] [µg/mL]	MIC [2] [µg/mL]	minimal effective concentration [3] [µg/mL]	MIC [3] [µg/mL]	minimal effective concentration (A. fumigatus MMX 5944) [µg/mL]	MIC (A. fumigatus MMX 5944) [µg/mL]	MIC [4] [µg/mL]	minimal effective concentration [4] [µg/mL]	minimal effective concentration [5] [µg/mL]	MIC [5] [µg/mL]	minimal effective concentration (A. flavus MMX 5948) [µg/mL]	MIC (A. flavus MMX 5948) [µg/mL]	minimal effective concentration [6, 11] [µg/mL]	MIC [6, 12] [µg/mL]	minimal effective concentration [6, 13] [µg/mL]	MIC [6, 14] [µg/mL]	MIC [7] [µg/mL]	MIC [8] [µg/mL]	further results
CC[C@H](C)[C@@H]1NC(=O)[C@@H]2CCCN2C(=O)[C@H](Cc2cccc(-c3ccc(N4CCN(C(C)=O)CC4)nc3)c2)N(C)C(=O)[C@H](Cc2ccccc2)NC(=O)[C@H](C(C)C)N(C)C(=O)[C@@H]([C@@H](C)CC)OC(=O)[C@H](C(C)(C)O)N(C)C(=O)[C@H](CC(C)C)NC(=O)[C@H](C(C)C)N(C)C1=O [Compound 32] (cyclo(F[X8]PI[NMeV]L[NMeVal(β-OH)][Hmp(2R,3S)][NMeV]))	0.25	2 (≈ 1.53 µM)	> 64	> 64	0.5	1	1	> 64	> 64	> 64	> 64	> 64	0.25	1	2	> 64	> 64	> 64	0.03	2	MIC [9]: 2 µg/mL (≈ 1.53 µM)
CC[C@H](C)[C@@H]1NC(=O)[C@@H]2CCCN2C(=O)[C@H](Cc2cccc(-c3cccc(N4CCN(C)CC4)n3)c2)N(C)C(=O)[C@H](Cc2ccccc2)NC(=O)[C@H](C(C)C)N(C)C(=O)[C@@H]([C@@H](C)CC)OC(=O)[C@H](C(C)(C)O)N(C)C(=O)[C@H](CC(C)C)NC(=O)[C@H](C(C)C)N(C)C1=O [Compound 33] (cyclo(F[X9]PI[NMeV]L[NMeVal(β-OH)][Hmp(2R,3S)][NMeV]))	0.03	0.5 (≈ 0.392 µM)	0.06	0.12	0.03	0.03	0.5	0.5	0.12	0.03	0.06	0.06	0.12	0.5	0.015	0.25	0.5	1 (≈ 0.783 µM)	0.004	0.06	MIC [9]: 0.5 µg/mL (≈ 0.392 µM)
CCC(C)[C@@H]1NC(=O)[C@@H]2CCCN2C(=O)[C@H](Cc2cccc(-c3cccnc3)c2)N(C)C(=O)[C@H](Cc2ccccc2)NC(=O)[C@H](C(C)C)N(C)C(=O)[C@@H](C(C)CC)OC(=O)C(C(C)(C)O)N(C)C(=O)C(CC(C)C)NC(=O)[C@H](C(C)C)N(C)C1=O (stereo partly drawn) [meta-substituted positional isomer of Compound X] (cyclo(F[NMePhe(3-(3-pyridyl))]P[Ile(3ξ)][NMeV][ξL][ξNMeVal(3-OH)][X6][NMeV]))	–	–	–	–	–	–	–	–	–	–	–	–	–	–	–	–	–	–	–	–	MIC (A. fumigates): 0.6 µg/mL (≈ 0.509 µM)
CCC(C)[C@@H]1NC(=O)[C@@H]2CCCN2C(=O)[C@H](Cc2ccc(-c3cccnc3)cc2)N(C)C(=O)[C@H](Cc2ccccc2)NC(=O)[C@H](C(C)C)N(C)C(=O)[C@@H](C(C)CC)OC(=O)C(C(C)(C)O)N(C)C(=O)C(CC(C)C)NC(=O)[C@H](C(C)C)N(C)C1=O (stereo partly drawn) [para substituted positional isomer of Compound X] (cyclo(F[X36]P[Ile(3ξ)][NMeV][ξL][ξNMeVal(3-OH)][X6][NMeV]))	–	–	–	–	–	–	–	–	–	–	–	–	–	–	–	–	–	–	–	–	MIC (A. fumigates): > 2.5 µg/mL
